Structures can show the parent of a compound that is named as a salt.
Columns and labels:
[1] = system: isolated rat aorta; assay: Calcium inhibitory properties: contractile response to potassium-induced depolarization on isolated rat aorta; design: species or system isolated organ, male Wistar rats; settings: for activity at 1 µM / activity at 0.1 µM / activity at 10 µM / activity at 0.01 µM / activity at 0.001 µM: Rattus norvegicus, 1 h, read-out: % of the maximum contractional effect; for activity at 1 µM: 10^-6 M; for activity at 0.1 µM: 10^-7 M; for activity at 10 µM: 10^-5 M; for activity at 0.01 µM: 10^-8 M; for activity at 0.001 µM: 10^-9 M
How it was run: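 Contraction is expressed as % of the pre-incubation maximum, measured after a 60 min compound exposure and a fresh K+ (100 mM KCl) depolarization. Tissue: aortic strips from male Wistar rats, 2 g tension, modified Krebs-bicarbonate, 37° C, CO2/O2 gassed.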

[2] = system: isoprenaline-induced acceleration in heart rate (anti-β effect); assay: Antiadrenergic properties: anti-β effect (reduction of isoprenaline-induced tachycardia); format: in vivo; settings: dog; for inhibition in vivo at 0.13 mg/kg: 0.13 mg/kg i.v.
Experimental: The object of this test is to determine the capacity of the compounds of the invention for reducing the increase in epinephrine-induced increase in blood-pressure (anti-α effect) and the isoprenaline-induced acceleration in heart rate (anti-β effect), in dogs previously anaesthatized with pentobarbital and atropinized. For each dog, the dose of epinephrine (between 3 and 10 μg/kg) which induced a reproducible increase in the blood-pressure of approximately 133×10^2 Pa and the dose of isoprenaline (1 to 2 μg/kg) which induced a reproducible increase in the heart rate of approximately 70 beats/min. were first determined. The dose of epinephrine and of isoprenaline, determined in this manner, were injected alternately every ten minutes and, after two successive reference responses had been obtained, an amount of the test compound was administered intravenously. The percentage reduction in the acceleration of the heart rate induced by the test compound compared with the reference tachycardia measured previously (approximately 70 beats) was recorded. In both cases, the results of the reduction in blood-pressure or in the heart rate have been expressed as follows: […]

[3] = system: epinephrine-induced increase in blood-pressure (anti-α effect); assay: Antiadrenergic properties: anti-α effect (reduction of epinephrine-induced hypertension); format: in vivo; design: key to anti-α effect: +: for a reduction < 50%; ++: for a reduction ≥ 50%; +++: for a reduction sub-total (almost complete reduction); settings: dog
Experimental: The object of this test is to determine the capacity of the compounds of the invention for reducing the increase in epinephrine-induced increase in blood-pressure (anti-α effect) and the isoprenaline-induced acceleration in heart rate (anti-β effect), in dogs previously anaesthatized with pentobarbital and atropinized. For each dog, the dose of epinephrine (between 3 and 10 μg/kg) which induced a reproducible increase in the blood-pressure of approximately 133×10^2 Pa and the dose of isoprenaline (1 to 2 μg/kg) which induced a reproducible increase in the heart rate of approximately 70 beats/min. were first determined. The dose of epinephrine and of isoprenaline, determined in this manner, were injected alternately every ten minutes and, after two successive reference responses had been obtained, an amount of the test compound was administered intravenously. The percentage reduction in the hypertension induced by the test compound compared with the reference hypertension previously obtained (approximately 100 mm Hg) was recorded. In both cases, the results of the reduction in blood-pressure or in the heart rate have been expressed as follows: […]

[4] = Canis lupus familiaris, iv, 11.2 mg/kg i.v.
[5] = Canis lupus familiaris, iv, 4.9 mg/kg i.v.
[6] = Canis lupus familiaris, iv, 5.89 mg/kg i.v.
[7] = Canis lupus familiaris, iv, 0.12 mg/kg i.v.
[8] = Canis lupus familiaris, iv, 0.52 mg/kg i.v.

Structure (SMILES)	activity at 1 µM [1] [%]	activity at 0.1 µM [1] [%]	activity at 0.01 µM [1] [%]	other results
CCCCN(CCCC)CCCOc1ccc(S(=O)(=O)c2c(C3CCCCC3)cn3ccccc23)cc1 [Ex. 51, 2-Cyclohexyl-1-{4-[3-(di-n-butylamino)propyloxy]-benzenesulphonyl}indolizin]	58.9	80.4		inhibition in vivo at 5.2 mg/kg ([2]; Canis lupus familiaris, iv, 5.2 mg/kg i.v.): ≥ 50%; anti-α effect ([3]; 5.2 mg/kg i.v.): +++
CCCCN(CCCC)CCCOc1ccc(Sc2c(C(C)C)cn3ccccc23)cc1.O=C(O)C(=O)O [Ex. 52, 1-{4-[3-(di-n-butylamino)propyloxy]phenylthio}-2-isopropylindolizine oxalate]	81.2			activity at 10 µM [1]: 69.2%; inhibition in vivo at 5.4 mg/kg ([2]; Canis lupus familiaris, iv, 5.4 mg/kg i.v.): ≥ 50%; anti-α effect ([3]; 5.4 mg/kg i.v.): +++
COc1ccc(CCN(C)CCCOc2ccc(Sc3c(C(C)C)cn4ccccc34)cc2)cc1OC [Ex. 53, 1-[4-{3-[N-methyl-N-(3,4-dimethoxy-β-phenethyl)amino]propyloxy}phenylthio]-2-isopropylindolizine oxalate]	75.4			activity at 10 µM [1]: 59.8%; inhibition in vivo at 6.1 mg/kg ([2]; Canis lupus familiaris, iv, 6.1 mg/kg i.v.): < 50%; anti-α effect ([3]; 6.1 mg/kg i.v.): +++
COc1ccc(CCN(C)CCCOc2ccc(S(=O)(=O)c3c(C(C)C)cc4ccccn34)cc2)cc1OC [Ex. 55, 2-isopropyl-3-[4-{3-[N-methyl-N-(3,4-dimethoxy-β-phenethyl)amino]propyloxy}benzenesulphonyl]indolizine oxalate]		9.5	34.1	activity at 0.001 µM [1]: 68.7%; inhibition in vivo at 0.13 mg/kg ([2]; Canis lupus familiaris, iv): ≥ 50%; anti-α effect ([3]; 0.13 mg/kg i.v.): +++
COc1ccc(CCN(C)CCCOc2ccc(S(=O)(=O)c3ccccn3)cc2)cc1OC [Ex. 59, 2-[4-{3-[N-methyl-N-(3,4-dimethoxy-β-phenethyl)amino]propyloxy}benzenesulphonyl]pyridine oxalate]	81.7	87.5		% of the maximum contractional effect ([1]; head printed "10^-" (exponent missing; first of three columns before 10^-6 M), 60 min): 33.3%; inhibition in vivo at 11.2 mg/kg [2, 4]: ≥ 50%; inhibition in vivo at 11.2 mg/kg [3, 4]: ≥ 50%
COc1ccc(CCN(C)CCCOc2ccc(S(=O)(=O)c3ccccc3)cc2)cc1OC [Ex. 63, 4-{3-[N-methyl-N-(3,4-dimethoxy-β-phenethyl)amino]propyloxy}benzenesulphonylbenzene hydrochloride]	21.4	73.7		inhibition in vivo at 10.1 mg/kg ([2]; Canis lupus familiaris, iv, 10.1 mg/kg i.v.): ≥ 50%; anti-α effect ([3]; 10.1 mg/kg i.v.): +++
CCCCN(CCCC)CCCOc1ccc(S(=O)(=O)c2ccccc2)cc1 [Ex. 64, 4-[3-(di-n-butylamino)propyloxy]benzenesulphonylbenzene oxalate]	32.4	85.3		inhibition in vivo at 4.9 mg/kg [2, 5]: ≥ 50%; inhibition in vivo at 4.9 mg/kg [3, 5]: < 50%
CCCCc1nc2ccccc2n1S(=O)(=O)c1ccc(OCCCN(CCCC)CCCC)cc1 [Ex. 65, 2-n-butyl-1-{4-[3-(di-n-butylamino)propyloxy]benzenesulphonyl}benzimidazolacid oxalate]	47.5	64.8		inhibition in vivo at 5.89 mg/kg [2, 6]: ≥ 50%; inhibition in vivo at 5.89 mg/kg [3, 6]: ≥ 50%
COc1ccc(CCN(C)CCCOc2ccc(S(=O)(=O)c3c(C(C)C)oc4ccccc34)cc2)cc1OC [Ex. 66, 2-isopropyl-3-[4-{3-[N-methyl-N-(3,4-dimethoxy-β-phenethylamino]propyloxy}benzenesulphonylbenzofuran oxalate]	2.6	19.7	60.4	activity at 0.001 µM [1]: 81.7%; inhibition in vivo at 0.1 mg/kg ([2]; Canis lupus familiaris, iv, 0.1 mg/kg i.v.): < 50%; anti-α effect ([3]; 0.1 mg/kg i.v.): +++
CCCc1oc2ccccc2c1S(=O)(=O)c1ccc(OCCCN(C)CCc2ccc(OC)c(OC)c2)cc1 [Ex. 67, 2-n-Propyl-3-[4-{3-[N-methyl-N-(3,4-dimethoxy-β-phenethyl)amino]propyloxy}benzenesulphonyl]benzofuran oxalate]	9.3	38.3	80.9	inhibition in vivo at 1.3 mg/kg ([2]; Canis lupus familiaris, iv, 1.3 mg/kg i.v.): < 50%; anti-α effect ([3]; 1.3 mg/kg i.v.): +++
CCCc1sc2ccccc2c1S(=O)(=O)c1ccc(OCCCN(C)CCc2ccc(OC)c(OC)c2)cc1 [Ex. 68, 2-n-Propyl-3-[4-{3-[N-methyl-N-(3,4-dimethoxy-β-phenethyl)amino]propyloxy}benzenesulphonyl]benzothiophene hemioxalate]	9.7	45.3	68.9	inhibition in vivo at 0.6 mg/kg ([2]; Canis lupus familiaris, iv, 0.6 mg/kg i.v.): ≥ 50%; anti-α effect ([3]; 0.6 mg/kg i.v.): +++
CCCCc1oc2ccccc2c1S(=O)(=O)c1ccc(OCCCN(C)CCc2ccc(OC)c(OC)c2)cc1 [Ex. 69, 2-n-butyl-3-[4-{3-[N-methyl-N-(3,4-dimethoxy-β-phenethyl)amino]propyloxy}benzenesulphonyl]benzofuran hydrochloride]	36.8	59	76	anti-β effect ([2]; 1.2 mg/kg i.v.): + +; anti-α effect ([3]; 1.2 mg/kg i.v.): +++
CCCCN(CCCC)CCCOc1ccc(S(=O)(=O)c2c(C(C)C)nn3ccccc23)cc1 [Ex. 70, 2-isopropyl-3-{4-[3-(di-n-butylamino)propyloxy]benzenesulphonyl}pyrazolo[1,5-a]pyridine oxalate]	0	18.9	83	inhibition in vivo at 0.12 mg/kg [2, 7]: < 50%; inhibition in vivo at 0.12 mg/kg [3, 7]: ≥ 50%
COc1ccc(CCN(C)CCCOc2ccc(S(=O)(=O)c3c(C(C)C)nn4ccccc34)cc2)cc1OC [Ex. 71, 2-isopropyl-3-[4-{3-[N-methyl-N-(3,4-dimethoxy-β-phenethyl)amino]propyloxy}benzenesulphonyl]pyrazolo(1,5-a]pyridine oxalate]	0	15.1	67.1	activity at 0.001 µM [1]: 84.9%; inhibition in vivo at 0.13 mg/kg ([2]; Canis lupus familiaris, iv): ≥ 50%; anti-α effect ([3]; 0.13 mg/kg i.v.): +++
CC(C)c1nn2ccccc2c1S(=O)(=O)c1ccc(OCCCNC(C)(C)C)cc1 [Ex. 72, 2-isopropyl-3-{4-[3-(tertiobutylamino)propyloxy]benzenesulphonyl}pyrazolo[1,5-a]pyridine oxalate]	13.2	66.5	84	inhibition in vivo at 0.52 mg/kg [2, 8]: < 50%; inhibition in vivo at 0.52 mg/kg [3, 8]: ≥ 50%
COc1ccc(CCN(C)CCCOc2ccc(S(=O)(=O)C3=C(C(C)C)OCC3)cc2)cc1OC [Ex. 73, 2-isopropyl-3-[4-{3-[N-methyl-N-(3,4-dimethoxy-β-phenethyl)amino]propyloxy}benzenesulphonyl]-4,5-dihydro-furan oxalate]	8.2	66.7	78.3	inhibition in vivo at 3 mg/kg ([2]; Canis lupus familiaris, iv, 3 mg/kg i.v.): ≥ 50%; anti-α effect ([3]; 3 mg/kg i.v.): +++
CCCCN(CCCC)CCCOc1ccc(S(=O)(=O)c2cc3ccccc3nc2C(C)C)cc1.O=C(O)C(=O)O [Ex. 74, 2-isopropyl-3-{4-[3-(di-n-butylamino)propyloxy]benzenesulphonyl}quinoline oxalate]	22.4	67.3		inhibition in vivo at 1.2 mg/kg ([2]; Canis lupus familiaris, iv, 1.2 mg/kg i.v.): < 50%; anti-α effect ([3]; 1.2 mg/kg i.v.): +++

From patent US5147878A, “Aminoalkoxyphenyl derivatives, process of preparation and compositions containing the same” (Sanofi, priority 1986, dated 1992)
